How the values were obtained:
HIF-1 = test: Western blot for HIF-1 in colonic crypts after DMOG injection; assay type: in vivo, male C57Bl/6 mice; details: 8 mg DMOG intraperitoneally; 4-12 after DMOG administration
Method: (§1) FIG. 1 depicts a Western blot for HIF-1, HIF-2, and β-actin in colonic crypts at the time points indicated after DMOG injection (8 mg.) Each lane represents a different animal.
(§2) In order to assess the kinetic effects of DMOG on the HIF-1 and HIF-2 protein levels, male C57Bl/6 mice were injected with 8 mg. of DMOG intraperitoneally and colonic crypts were harvested at various time points after injection (FIG. 1). A 8 mg dose results in the elevation of HIF1 and HIF2 proteins 4-12 after DMOG administration as determined by Western blot analysis.

[1] = Mortality, GI toxicity and gross intestinal morphology after DMOG injection; assay type: in vivo, male C57Bl/6 mice; details: 8 mg DMOG intraperitoneally, mice
GI epithelia = test: FITC-dextran assay of the GI tract (epithelial integrity) after irradiation; assay type: in vivo, mice; details: 20 Gy; gavage 0.6 mg/kg FITC-dextran (4 kD); measured four hours later (FIG. 4)
Method: FIG. 4 depicts the concentration of FITC-Dextran present in the serum of mice gavaged with 0.6 mg./kg. FITC-Dextran (4 kD) either with or without irradiation and with or without DMOG. Six mice were tested per experimental condition. *p<0.04
Mortality from GI radiotoxicity results from compromised epithelial integrity manifesting as uncontrolled diarrhea or infections from enteric pathogens due to decreased barrier function. To test whether a PHD inhibitor would increase epithelial integrity after radiation insult, a FITC-dextran assay of the GI tract was performed. FITC-dextran cannot cross the GI epithelia, thus its presence in serum is an indication of compromised epithelial integrity. Following irradiation (20 Gy), mice underwent gavage, with the insertion of 0.6 mg/kg of FITC-dextran (4 kD). Four hours later, levels of FITC-dextran were measured in the blood. Treatment with DMOG results in a 3.5-fold decrease in the presence of FITC-dextran in the serum relative to saline control (FIG. 4).

HIF-2 = test: Western blot for HIF-2 in colonic crypts after DMOG injection; assay type: in vivo, male C57Bl/6 mice; details: 8 mg DMOG intraperitoneally; 4-12 after DMOG administration
Method: as §1, §2

intestinal stem cells = test: Microcolony analysis of colon crypt regeneration after 20 Gy abdominal irradiation; assay type: in vivo, mice
Method: FIG. 2 is a graphical depiction of the crypts identified in transverse sections of colon stained with hematoxylin-eosin (H & E) after they were treated with saline or DMOG 16 hours before radiation, 4 hours before radiation, and then every 24 hours after receiving 20 Gy of abdominal radiation. The data represents the combined results from 8 mice receiving either DMOG or saline. Sixteen sections were analyzed per mouse. *p<0.006.
FIG. 3 is a graphical depiction of the crypts identified in transverse sections of colon stained with H & E in mice irradiated before administration of DMOG. Mice were treated with saline or DMOG 2 hours after receiving 20 Gy of abdominal radiation and then once every 24 hours thereafter for 4.5 days. x-axis, left bar mice treated with saline, right bar mice treated with DMOG; y-axis regenerated crypts. *p<0.005.
Radio- and chemotoxicity to the GI tract is the result of damage to the intestinal stem cell located within the crypts of Lieberkühn. The intestinal stem cell, defined by its expression of LGR5 is the most rapidly dividing cell in the GI tract and is therefore susceptible to genotoxic damage. […]

[2] = system: mice receiving 20 Gy of abdominal radiation; test: Survival following whole-abdominal irradiation (Kaplan-Meier); assay type: in vivo; details: 20 Gy abdominal radiation, DMOG treatment vs none (FIG. 5)
Text: FIG. 5 depicts Kaplan-Meier survival analysis of mice following whole-abdominal irradiation (20 Gy) with and without DMOG treatment. p=0.03 (n=12).

COC(=O)CNC(=O)C(=O)OC [DMOG, N-(methoxyoxoacetyl)-glycine methyl ester]
HIF1 protein level in colonic crypts (Western blot) (HIF-1): elevation | gross morphological changes in the intestine [1]: nor was there obvious gross morphological changes in the intestine | mortality or GI toxicity [1]: no observed increase in mortality or GI toxicity | decrease in FITC-dextran in the serum relative to saline control (GI epithelia): 3.5 fold | HIF2 protein level in colonic crypts (Western blot) (HIF-2): elevation | enrichment in regenerative capacity of colon relative to saline alone (regenerated crypts) (intestinal stem cells; 8 mg DMOG prior to 20 Gy whole-abdomen irradiation, then daily, sacrifice 4.5 days post irradiation (FIG. 2)): 2 fold | enrichment in regenerative capacity of colon relative to saline alone (regenerated crypts) (intestinal stem cells; DMOG administered after 20 Gy whole-abdomen irradiation (2 hours after, then every 24 hours), 4.5 days (FIG. 3)): 2 fold | overall survival [2]: dramatically improved
